Measurements: PubChem BioAssay (NCI)
Values joined by “and” are separate entries in the source; they are usually repeats but may differ in a detail not shown here. Equal entries are not always repeated.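 Method: 48-hour compound exposure of cells in 96-well plates, five concentrations, linear interpolation of endpoints. Abbreviation: GI50, concentration required for 50% inhibition of growth. TGI is the concentration that stops growth completely.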

How the values were obtained:
Experiment in all cases: DTP human tumour cell line panel, 48 h
NCI-H522 lung = system: NCI-H522 lung
TK-10 renal = system: TK-10 renal
MDA-MB-435 = system: MDA-MB-435
MALME-3M melanoma = system: MALME-3M melanoma
K-562 leukemia = system: K-562 leukemia
MCF7 breast = system: MCF7 breast
IGROV1 ovarian = system: IGROV1 ovarian
A498 renal = system: A498 renal
HT29 colon = system: HT29 colon
M14 melanoma = system: M14 melanoma

Cc1nnc(C[C@@H]2C=C(c3ccc(Cl)cc3)c3ccccc3-n3c(C)nnc32)o1
GI50 (NCI-H522 lung): 0.578 µM
TGI (NCI-H522 lung): 32.4 µM
GI50 (TK-10 renal): 0.148 µM
TGI (TK-10 renal): 27.1 µM
GI50 (MDA-MB-435): 0.858 µM
TGI (MDA-MB-435): 55.9 µM
GI50 (MALME-3M melanoma): 5.01 µM
TGI (MALME-3M melanoma): 64.6 µM
GI50 (K-562 leukemia): 0.809 µM
TGI (K-562 leukemia): > 100 µM
GI50 (MCF7 breast): 0.221 µM
TGI (MCF7 breast): > 100 µM
GI50 (IGROV1 ovarian): 2.3 µM
TGI (IGROV1 ovarian): > 100 µM
GI50 (A498 renal): 0.712 µM
TGI (A498 renal): 12.7 µM
GI50 (HT29 colon): 0.241 µM
TGI (HT29 colon): > 100 µM
GI50 (M14 melanoma): 0.529 µM
TGI (M14 melanoma): 56.7 µM

C[C@@H]1CC[C@H]2[C@@H](C)C(O)O[C@@H]3O[C@]4(C)CC[C@@H]1[C@]32OO4 (stereo partly drawn)
GI50 (NCI-H522 lung): 0.329 µM
TGI (NCI-H522 lung): 3.29 µM
GI50 (TK-10 renal): 0.854 µM
TGI (TK-10 renal): 9.64 µM
GI50 (MDA-MB-435): 0.361 µM
TGI (MDA-MB-435): 10.8 µM
GI50 (MALME-3M melanoma): 1.54 µM
TGI (MALME-3M melanoma): > 66.1 µM
GI50 (K-562 leukemia): 0.337 µM
TGI (K-562 leukemia): 4.57 µM
GI50 (MCF7 breast): 1.66 µM
TGI (MCF7 breast): 20.4 µM
GI50 (IGROV1 ovarian): 1.13 µM
TGI (IGROV1 ovarian): 5.23 µM
GI50 (A498 renal): 2.89 µM
TGI (A498 renal): > 96.6 µM
GI50 (HT29 colon): 0.634 µM
TGI (HT29 colon): 13.5 µM
GI50 (M14 melanoma): 1.24 µM
TGI (M14 melanoma): 24.2 µM

CCOC(=O)C1(CC(=O)O)CCCC1=O (stereo not drawn)
TGI (NCI-H522 lung): > 100 µM
TGI (TK-10 renal): > 100 µM
TGI (MDA-MB-435): > 100 µM
TGI (MALME-3M melanoma): > 100 µM
TGI (K-562 leukemia): > 100 µM
TGI (MCF7 breast): > 100 µM
TGI (IGROV1 ovarian): > 100 µM
TGI (A498 renal): > 100 µM
TGI (HT29 colon): > 100 µM
TGI (M14 melanoma): > 100 µM

Cc1nc2ccccn2c1NC(=O)NN1C(=O)CSC1c1ccc(Cl)cc1 (stereo not drawn)
GI50 (NCI-H522 lung): > 100 µM
TGI (NCI-H522 lung): > 100 µM
GI50 (TK-10 renal): > 100 µM
TGI (TK-10 renal): > 100 µM
GI50 (MDA-MB-435): > 100 µM
TGI (MDA-MB-435): > 100 µM
GI50 (K-562 leukemia): > 100 µM
TGI (K-562 leukemia): > 100 µM
GI50 (MCF7 breast): > 100 µM
TGI (MCF7 breast): > 100 µM
GI50 (IGROV1 ovarian): > 100 µM
TGI (IGROV1 ovarian): > 100 µM
GI50 (A498 renal): > 100 µM
TGI (A498 renal): > 100 µM
GI50 (HT29 colon): > 100 µM
TGI (HT29 colon): > 100 µM
GI50 (M14 melanoma): > 100 µM
TGI (M14 melanoma): > 100 µM

O=C(Nc1ccc(OS(=O)(=O)c2ccc(F)cc2)cc1)C12CC3CC(CC(C3)C1)C2
GI50 (NCI-H522 lung): 1.72 µM
TGI (NCI-H522 lung): > 100 µM
GI50 (TK-10 renal): 21.5 µM
TGI (TK-10 renal): 62.6 µM
GI50 (MDA-MB-435): > 27.9 µM
TGI (MDA-MB-435): > 100 µM
GI50 (MALME-3M melanoma): 9.13 µM
TGI (MALME-3M melanoma): 54.4 µM
GI50 (K-562 leukemia): 0.319 µM
TGI (K-562 leukemia): > 100 µM
GI50 (MCF7 breast): 0.641 µM
TGI (MCF7 breast): > 100 µM
GI50 (IGROV1 ovarian): 16.1 µM
TGI (IGROV1 ovarian): > 62.5 µM
GI50 (A498 renal): 0.936 µM
TGI (A498 renal): 22.4 µM
GI50 (HT29 colon): 0.211 µM
TGI (HT29 colon): > 100 µM
GI50 (M14 melanoma): 8.12 µM
TGI (M14 melanoma): > 100 µM

N#C/C(=C\c1ccc(O)c(O)c1)C(=O)NCc1ccc(C(F)(F)F)cc1
GI50 (NCI-H522 lung): 3.06 µM
TGI (NCI-H522 lung): 19.6 µM
TGI (TK-10 renal): 10.4 µM
GI50 (MDA-MB-435): 5.69 µM
TGI (MDA-MB-435): 29.4 µM
GI50 (MALME-3M melanoma): 0.771 µM
TGI (MALME-3M melanoma): 30.7 µM
GI50 (K-562 leukemia): 9.91 µM
TGI (K-562 leukemia): > 83.6 µM
GI50 (MCF7 breast): 21.3 µM
TGI (MCF7 breast): > 69 µM
GI50 (IGROV1 ovarian): 2.4 µM
TGI (IGROV1 ovarian): 14.4 µM
GI50 (A498 renal): 16 µM
TGI (A498 renal): 36.1 µM
GI50 (HT29 colon): 15.7 µM
TGI (HT29 colon): 50.7 µM

C[C@@H](C1CC[C@H]2[C@@H]3[C@@H]4O[C@@H]4[C@@]4(O)CC=CC(=O)[C@]4(C)[C@H]3C[C@H](O)[C@]12C)[C@H]1C[C@]2(C)O[C@]2(C)C(=O)O1 (stereo partly drawn)
TGI (NCI-H522 lung): > 100 µM
TGI (TK-10 renal): > 100 µM
TGI (MDA-MB-435): > 100 µM
TGI (MALME-3M melanoma): > 100 µM
TGI (K-562 leukemia): > 100 µM
TGI (MCF7 breast): > 100 µM
TGI (IGROV1 ovarian): > 100 µM
TGI (A498 renal): > 100 µM
TGI (HT29 colon): > 100 µM
TGI (M14 melanoma): > 100 µM

Cc1cc2c(cc1Cl)SC(N(c1ccccc1Cl)S(=O)(=O)c1ccc(Br)s1)=NS2(=O)=O
GI50 (NCI-H522 lung): 13.5 µM
TGI (NCI-H522 lung): 31.7 µM
GI50 (TK-10 renal): 21.9 µM
TGI (TK-10 renal): 66.4 µM
GI50 (MDA-MB-435): 13.2 µM
TGI (MDA-MB-435): 31.6 µM
GI50 (MALME-3M melanoma): 13.8 µM
TGI (MALME-3M melanoma): 39.4 µM
GI50 (K-562 leukemia): 18.7 µM
TGI (K-562 leukemia): 54.6 µM
GI50 (MCF7 breast): 8.88 µM
TGI (MCF7 breast): 28.8 µM
GI50 (IGROV1 ovarian): 19.8 µM
TGI (IGROV1 ovarian): 89.8 µM
GI50 (A498 renal): 11.3 µM
TGI (A498 renal): 42 µM
GI50 (HT29 colon): 19.9 µM
TGI (HT29 colon): 41.6 µM
GI50 (M14 melanoma): 18.5 µM
TGI (M14 melanoma): 47.3 µM

Cc1cc(=O)oc2c(C3=NN(C=O)C(c4ccccc4)C3)c(O)ccc12 (stereo not drawn)
TGI (NCI-H522 lung): > 93.6 µM
TGI (TK-10 renal): 87.9 µM
TGI (MDA-MB-435): > 100 µM
TGI (MALME-3M melanoma): > 85 µM
TGI (K-562 leukemia): > 100 µM
TGI (MCF7 breast): > 95.5 µM
TGI (IGROV1 ovarian): > 100 µM
TGI (A498 renal): > 92.9 µM
TGI (HT29 colon): > 100 µM
TGI (M14 melanoma): > 95.9 µM

CC(C)C[C@H](CC(=O)O)C(=O)N[C@@H](Cc1c[nH]c2ccccc12)C(=O)N[C@@H](C)c1ccccc1
GI50 (NCI-H522 lung): > 25 µM
TGI (NCI-H522 lung): > 25 µM
GI50 (TK-10 renal): > 25 µM
TGI (TK-10 renal): > 25 µM
GI50 (MDA-MB-435): > 25 µM
TGI (MDA-MB-435): > 25 µM
GI50 (MALME-3M melanoma): > 25 µM
TGI (MALME-3M melanoma): > 25 µM
GI50 (K-562 leukemia): > 25 µM
TGI (K-562 leukemia): > 25 µM
GI50 (MCF7 breast): > 25 µM
TGI (MCF7 breast): > 25 µM
GI50 (IGROV1 ovarian): > 25 µM
TGI (IGROV1 ovarian): > 25 µM
GI50 (A498 renal): > 25 µM
TGI (A498 renal): > 25 µM
GI50 (HT29 colon): > 25 µM
TGI (HT29 colon): > 25 µM
GI50 (M14 melanoma): > 25 µM
TGI (M14 melanoma): > 25 µM

CC(=O)N[C@H](C)[C@@H](O)[C@@H](C)[C@@H]1OC(=O)/C=C/C=C(C)\C=C\[C@]2(C)C[C@@H](NS(C)(=O)=O)C=C[C@@H]2/C=C(C)/C=C/[C@H]1C
GI50 (NCI-H522 lung): 0.0251 µM and 0.0451 µM
TGI (NCI-H522 lung): > 43.5 µM
GI50 (TK-10 renal): 0.045 µM and 0.276 µM
TGI (TK-10 renal): > 43.5 µM
GI50 (MDA-MB-435): 0.00268 µM and 0.00435 µM
TGI (MDA-MB-435): > 43.5 µM
GI50 (MALME-3M melanoma): 0.0868 µM and 0.0628 µM
TGI (MALME-3M melanoma): > 43.5 µM
GI50 (K-562 leukemia): 0.00684 µM and 0.0218 µM
TGI (K-562 leukemia): > 43.5 µM
GI50 (MCF7 breast): 0.00547 µM and 0.00591 µM
TGI (MCF7 breast): > 43.5 µM
GI50 (IGROV1 ovarian): 0.0185 µM and 0.014 µM
TGI (IGROV1 ovarian): > 43.5 µM
GI50 (A498 renal): 0.0068 µM and 0.0121 µM
GI50 (HT29 colon): 0.00459 µM and 0.00435 µM
TGI (HT29 colon): > 43.5 µM
GI50 (M14 melanoma): 0.00309 µM

Nc1nc(N)c2c(n1)NC(c1sc(Cl)nc1Cl)CC(c1ccccc1)=N2 (stereo not drawn)
GI50 (NCI-H522 lung): 3.27 µM
TGI (NCI-H522 lung): 14.3 µM
GI50 (TK-10 renal): 11.5 µM
TGI (TK-10 renal): 24.1 µM
GI50 (MDA-MB-435): 1.47 µM
TGI (MDA-MB-435): 10.2 µM
GI50 (MALME-3M melanoma): 6.33 µM
TGI (MALME-3M melanoma): 19.1 µM
GI50 (K-562 leukemia): 1.68 µM
TGI (K-562 leukemia): 20.9 µM
GI50 (MCF7 breast): 3.56 µM
TGI (MCF7 breast): 20.4 µM
GI50 (IGROV1 ovarian): 7.08 µM
TGI (IGROV1 ovarian): 23.4 µM
GI50 (A498 renal): 1.28 µM
TGI (A498 renal): 8.92 µM
GI50 (M14 melanoma): 2.64 µM
TGI (M14 melanoma): 10.4 µM

CCOC(=O)/C(=C/CC/C(C)=C/CC/C(C)=C/CCc1ccoc1)CC(=O)N1CCCCC1
GI50 (NCI-H522 lung): 2.75 µM
TGI (NCI-H522 lung): 9.2 µM
GI50 (TK-10 renal): 5.66 µM
TGI (TK-10 renal): 75.5 µM
GI50 (MDA-MB-435): 3.05 µM
TGI (MDA-MB-435): 10.9 µM
GI50 (MALME-3M melanoma): 2.62 µM
TGI (MALME-3M melanoma): 7.09 µM
GI50 (K-562 leukemia): 3.91 µM
TGI (K-562 leukemia): 96 µM
GI50 (MCF7 breast): 2.11 µM
TGI (MCF7 breast): 5.92 µM
GI50 (IGROV1 ovarian): 14 µM
TGI (IGROV1 ovarian): 47.2 µM
GI50 (A498 renal): 1.27 µM
TGI (A498 renal): 3.08 µM
GI50 (M14 melanoma): 2.95 µM
TGI (M14 melanoma): 10.2 µM

C=C1CCC2CC1C(C(=O)c1c[nH]c3ccccc13)=NC2(C)C (stereo not drawn)
TGI (NCI-H522 lung): > 100 µM
TGI (MDA-MB-435): > 100 µM
TGI (MALME-3M melanoma): > 100 µM
TGI (K-562 leukemia): > 100 µM
TGI (MCF7 breast): > 100 µM
TGI (IGROV1 ovarian): > 100 µM
TGI (A498 renal): > 100 µM
TGI (HT29 colon): > 100 µM
TGI (M14 melanoma): > 100 µM
